According to ChEMBL document CHEMBL5370585, “Exploration and Biological Evaluation of 1,3-Diamino-7H-pyrrol[3,2-f]quinazoline Derivatives as Dihydrofolate Reductase Inhibitors” (J Med Chem, 2023):
pIC50: −log10 of the molar value. Converted amounts (≈) assume the structure as drawn. The source made the active and inactive calls. The calls are words filed in the database; no cut-off is given here.

Legend:
Staphylococcus aureus [1] = assay: Antibacterial activity against Staphylococcus aureus ATCC 29213 incubated for 16 to 18 hrs by CLSI based broth dilution method; type: functional; conditions: time 16-18 hrs
Staphylococcus aureus [2] = assay: Antibacterial activity against methicillin-resistant Staphylococcus aureus ATCC 43300 incubated for 16 to 18 hrs by CLSI based broth dilution method; type: functional; conditions: time 16-18 hrs
[3] = test system: Staphylococcus epidermidis; assay: Antibacterial activity against Staphylococcus epidermidis ATCC 12228 incubated for 16 to 18 hrs by CLSI based broth dilution method; type: functional; conditions: time 16-18 hrs
Acinetobacter baumannii = assay: Antibacterial activity against Acinetobacter baumannii ATCC 19606 incubated for 16 to 18 hrs by CLSI based broth dilution method; type: functional; conditions: time 16-18 hrs
Enterococcus faecalis = assay: Antibacterial activity against Enterococcus faecalis ATCC 29212 incubated for 16 to 18 hrs by CLSI based broth dilution method; type: functional; conditions: time 16-18 hrs
Escherichia coli [4] = assay: Antibacterial activity against Escherichia coli ATCC 25922 incubated for 16 to 18 hrs by CLSI based broth dilution method; type: functional; conditions: time 16-18 hrs
Escherichia coli [5] = assay: Antibacterial activity against Escherichia coli ATCC 25922 assessed as inhibition of bacterial growth at upto 8 times MIC measured upto 28 hrs by time kill curve assay; type: functional, organism-based
Staphylococcus aureus [6] = assay: Antibacterial activity against methicillin-resistant Staphylococcus aureus ATCC 43300 assessed as inhibition of bacterial growth at upto 8 times MIC measured upto 28 hrs by time kill curve assay; type: functional, organism-based
Staphylococcus aureus [7] = assay: Antibacterial activity against Staphylococcus aureus ATCC 29213 incubated for 16 to 18 hrs in absence of human plasma by CLSI based broth dilution method; type: functional; conditions: time 16-18 hrs
Staphylococcus aureus [8] = assay: Antibacterial activity against Staphylococcus aureus ATCC 29213 incubated for 16 to 18 hrs in presence of human plasma by CLSI based broth dilution method; type: functional; conditions: time 16-18 hrs
Staphylococcus aureus [9] = assay: Antibacterial activity against methicillin-resistant Staphylococcus aureus ATCC 43300 incubated for 16 to 18 hrs in absence of human plasma by CLSI based broth dilution method; type: functional; conditions: time 16-18 hrs
Staphylococcus aureus [10] = assay: Antibacterial activity against methicillin-resistant Staphylococcus aureus ATCC 43300 incubated for 16 to 18 hrs in presence of human plasma by CLSI based broth dilution method; type: functional; conditions: time 16-18 hrs
Escherichia coli [11] = assay: Antibacterial activity against Escherichia coli ATCC 25922 incubated for 16 to 18 hrs in absence of human plasma by CLSI based broth dilution method; type: functional; conditions: time 16-18 hrs
Escherichia coli [12] = assay: Antibacterial activity against Escherichia coli ATCC 25922 incubated for 16 to 18 hrs in presence of human plasma by CLSI based broth dilution method; type: functional; conditions: time 16-18 hrs
Staphylococcus aureus [13] = assay: Drug resistance against methicillin-resistant Staphylococcus aureus ATCC 43300 assessed as increase in MIC measured after 10 passaging for 24 hrs; type: functional, organism-based
MCF7 = assay: Cytotoxicity against human MCF7 cells measured after 72 hrs by MTT assay; type: functional, cell-based; conditions: MCF7, 72 h
HGC-27 = assay: Cytotoxicity against human HGC-27 cells measured after 72 hrs by MTT assay; type: functional, cell-based; conditions: HGC-27, 72 h
HCT-116 = assay: Cytotoxicity against human HCT-116 cells measured after 72 hrs by MTT assay; type: functional, cell-based; conditions: HCT-116, 72 h
HepG2 = assay: Cytotoxicity against human HepG2 cells measured after 72 hrs by MTT assay; type: functional, cell-based; conditions: HepG2, 72 h
[14] = Toxicity in ICR mouse assessed as median lethal dose administered as single IP dose measured upto 8 days; conditions: in vivo, time < 8 day
[15] = Toxicity in ip dosed ICR mouse assessed as animal death at high dose measured upto 8 days; type: organism-based; conditions: in vivo, 192 h, time < 8 day
[16] = Metabolic stability in mouse liver microsomes assessed as half life at 1 uM measured upto 60 mins in presence of NADPH by LC-MS/MS analysis; type: ADME, Microsome
[17] = Metabolic stability in mouse liver microsomes assessed as intrinsic clearance at 1 uM measured upto 60 mins in presence of NADPH by LC-MS/MS analysis; type: ADME, Microsome; conditions: read-out: CLH
[18] = Metabolic stability in mouse liver microsomes assessed as hepatic clearance at 1 uM measured upto 60 mins in presence of NADPH by LC-MS/MS analysis; type: ADME, Microsome; conditions: 1 h
[19] = Stability in mouse plasma assessed as parent compound remaining at 1 ug/ml measured after 10 mins by LC-MS/MS analysis; type: ADME, cell-free; conditions: at 1 µg/mL, read-out: Stability
[20] = Stability in mouse plasma assessed as parent compound remaining at 1 ug/ml measured after 20 mins by LC-MS/MS analysis; type: ADME, cell-free; conditions: at 1 µg/mL, read-out: Stability
[21] = Stability in mouse plasma assessed as parent compound remaining at 1 ug/ml measured after 30 mins by LC-MS/MS analysis; type: ADME, cell-free; conditions: at 1 µg/mL, read-out: Stability
[22] = Stability in mouse plasma assessed as parent compound remaining at 1 ug/ml measured after 45 mins by LC-MS/MS analysis; type: ADME, cell-free; conditions: at 1 µg/mL, read-out: Stability
[23] = Stability in mouse plasma assessed as parent compound remaining at 1 ug/ml measured after 60 mins by LC-MS/MS analysis; type: ADME, cell-free; conditions: at 1 µg/mL, read-out: Stability
[24] = Stability in mouse plasma assessed as parent compound remaining at 1 ug/ml measured after 120 mins by LC-MS/MS analysis; type: ADME, cell-free; conditions: at 1 µg/mL, read-out: Stability
[25] = Stability in mouse plasma assessed as parent compound remaining at 1 ug/ml measured after 240 mins by LC-MS/MS analysis; type: ADME, cell-free; conditions: at 1 µg/mL, read-out: Stability
[26] = Stability in mouse plasma assessed as parent compound remaining at 1 ug/ml measured after 1440 mins by LC-MS/MS analysis; type: ADME, cell-free; conditions: at 1 µg/mL, read-out: Stability
[27] = Stability in mouse plasma assessed as parent compound remaining at 5 ug/ml measured after 10 mins by LC-MS/MS analysis; type: ADME, cell-free; conditions: at 5 µg/mL, read-out: Stability
[28] = Stability in mouse plasma assessed as parent compound remaining at 5 ug/ml measured after 20 mins by LC-MS/MS analysis; type: ADME, cell-free; conditions: at 5 µg/mL, read-out: Stability
[29] = Stability in mouse plasma assessed as parent compound remaining at 5 ug/ml measured after 30 mins by LC-MS/MS analysis; type: ADME, cell-free; conditions: at 5 µg/mL, read-out: Stability
[30] = Stability in mouse plasma assessed as parent compound remaining at 5 ug/ml measured after 45 mins by LC-MS/MS analysis; type: ADME, cell-free; conditions: at 5 µg/mL, read-out: Stability
[31] = Stability in mouse plasma assessed as parent compound remaining at 5 ug/ml measured after 60 mins by LC-MS/MS analysis; type: ADME, cell-free; conditions: at 5 µg/mL, read-out: Stability
[32] = Stability in mouse plasma assessed as parent compound remaining at 5 ug/ml measured after 120 mins by LC-MS/MS analysis; type: ADME, cell-free; conditions: at 5 µg/mL, read-out: Stability
[33] = Stability in mouse plasma assessed as parent compound remaining at 5 ug/ml measured after 240 mins by LC-MS/MS analysis; type: ADME, cell-free; conditions: at 5 µg/mL, read-out: Stability
[34] = Stability in mouse plasma assessed as parent compound remaining at 5 ug/ml measured after 1440 mins by LC-MS/MS analysis; type: ADME, cell-free; conditions: at 5 µg/mL, read-out: Stability
[35] = Half life in ICR mouse at 10 mg/kg, ip measured after 5 to 24 hrs post administration by LC-MS/MS analysis; type: ADME, organism-based; conditions: in vivo, time 5-24 hrs
[36] = AUC (0 to infinity) in ICR mouse at 10 mg/kg, ip measured after 5 to 24 hrs post administration by LC-MS/MS analysis; type: ADME, organism-based; parameters: time upper 24 hrs, dose 10 mg/kg, time lower 5 hrs, route ip; conditions: in vivo
[37] = AUC (0 to t) in ICR mouse at 10 mg/kg, ip measured after 5 to 24 hrs post administration by LC-MS/MS analysis; type: ADME, organism-based; parameters: time 5-24 hrs, dose 10 mg/kg, route ip; conditions: in vivo
Staphylococcus aureus [38] = assay: Antibacterial activity against Methicillin-resistant Staphylococcus aureus ATCC 43300 infected in ip dosed ICR mouse thigh infection model assessed as reduction in bacterial growth measured after 24 hrs post-treatment; type: functional, organism-based; conditions: dose lower 7.5 mg/kg, dose upper […]
Staphylococcus aureus [39] = assay: Antibacterial activity against Methicillin-resistant Staphylococcus aureus ATCC 43300 infected in ICR mouse thigh infection model assessed as survival rate at 7.5 mg/kg, ip measured after 24 hrs post-treatment relative to control; type: functional
Staphylococcus aureus [40] = assay: Antibacterial activity against Methicillin-resistant Staphylococcus aureus ATCC 43300 infected in ICR mouse thigh infection model assessed as survival rate at 15 mg/kg, ip measured after 24 hrs post-treatment relative to control; type: functional

Compound: Nc1nc(N)c2c(ccc3c2ccn3Cc2ccc3scnc3c2)n1
- MIC (Staphylococcus aureus [1]): 0.125 µg/mL (≈ 0.361 µM)
- MIC (Staphylococcus aureus [2]): 0.016 µg/mL (≈ 0.0462 µM)
- MIC [3]: ≤ 0.004 µg/mL
- MIC (Acinetobacter baumannii): 1 µg/mL (≈ 2.89 µM)
- MIC (Enterococcus faecalis): 0.03 µg/mL (≈ 0.0866 µM)
- MIC (Escherichia coli [4]): 0.06 µg/mL (≈ 0.173 µM)
- Activity (Escherichia coli [5]): Active
- Activity (Staphylococcus aureus [6]): Active
- MIC (Staphylococcus aureus [7]): 0.03 µg/mL (≈ 0.0866 µM)
- MIC (Staphylococcus aureus [8]): 0.5 µg/mL
- MIC (Staphylococcus aureus [9]): 0.016 µg/mL (≈ 0.0462 µM)
- MIC (Staphylococcus aureus [10]): 0.5 µg/mL
- MIC (Escherichia coli [11]): 0.06 µg/mL (≈ 0.173 µM)
- MIC (Escherichia coli [12]): 0.125 µg/mL
- Activity (Staphylococcus aureus [13]): Active
- pIC50 (MCF7): 6.24
- pIC50 (HGC-27): 9.00
- pIC50 (HCT-116): 8.30
- pIC50 (HepG2): 6.92
- LD50 at 192 h [14]: 283 mg/kg
- Activity [15]: Toxic
- half-life at 1 µM [16]: 0.203 h
- microsomal CLint at 1 µM [17]: 114 µL/min/mg
- CLH [18]: 74.9 mL/min/kg
- remaining at 10 min, 1 ug/ml [19]: 96.2%
- remaining at 20 min, 1 ug/ml [20]: 94.7%
- remaining at 0.5 h, 1 ug/ml [21]: 93.8%
- remaining at 0.75 h, 1 ug/ml [22]: 93.1%
- remaining at 1 h, 1 ug/ml [23]: 92.4%
- remaining at 2 h, 1 ug/ml [24]: 92.5%
- remaining at 4 h, 1 ug/ml [25]: 92.6%
- remaining at 24 h, 1 ug/ml [26]: 92.3%
- remaining at 10 min, 5 ug/ml [27]: 96.7%
- remaining at 20 min, 5 ug/ml [28]: 96%
- remaining at 0.5 h, 5 ug/ml [29]: 95.8%
- remaining at 0.75 h, 5 ug/ml [30]: 95.2%
- remaining at 1 h, 5 ug/ml [31]: 95.4%
- remaining at 2 h, 5 ug/ml [32]: 95.5%
- remaining at 4 h, 5 ug/ml [33]: 95.2%
- remaining at 24 h, 5 ug/ml [34]: 95.5%
- half-life [35]: 2.82 h
- AUC [36]: 367.6 ng·h/mL
- AUCt [37]: 2280.12 ng·h/mL
- Activity (Staphylococcus aureus [38]): Active
- survival at 7.5 mg/kg (Staphylococcus aureus [39]): 50%
- survival at 15 mg/kg (Staphylococcus aureus [40]): 66%
